Source: patent US20070155757A1, “Use of pyrimidine compounds in the preparation of parasiticides” (priority 2004, published 2007)

Row | melting point [°C] | Compound
1 | 110 to 112 | Nc1c(Oc2cccc(F)c2)ncnc1Oc1cccc(F)c1 [Compound 1.4, 4,6-bis-(3-fluorophenoxy)-pyrimidin-5-ylamine]
2 | 155 to 156 | Cc1cc(Oc2ncnc(Oc3ccc(F)c(C)c3)c2N)ccc1F [Compound 1.20, 4,6-bis-(4-fluoro-3-methylphenoxy)-pyrimidin-5-ylamine]
3 | 122 to 124 | NC(=O)Cc1c(Oc2ccc(F)c(C(F)(F)F)c2)ncnc1Oc1ccc(F)c(C(F)(F)F)c1 [Compound 1.29, [4,6-bis-(4-fluoro-3-(trifluoromethyl)phenoxy)]-pyrimidin-5-yl-acetamide]
